# Results published in patent US20190321417A1, “BACTERIAL PROBIOTIC TO DETOXIFY HERBICIDES AND INSECTICIDES” (PRESIDENT AND FELLOWS OF HARVARD COLLEGE, priority 2018, published 2019).
# Legend:
# [1] = system: Nasonia; test: Herbicide toxicity (LC50) in adult Nasonia from generationally-atrazine exposed and naïve populations; format: in vivo, Nasonia virtipennis; settings: 24 hr old adults
# Description: (§1) FIGS. 3A-3C present data that show atrazine resistance. (FIG. 3A) The median lethal concentration of atrazine to kill half of the population (LC50) in ppm for each generation of the Naïve populations (open circles) and the Atrazine exposed populations (black circles). (FIG. 3B) The median lethal concentration of atrazine to kill half of the population (LC50) in ppm for each generation of the Naïve populations (open circles) and the Atrazine exposed populations (black circles) when grown Germfree, gnotobiotic. Without bacteria, both populations experience increased toxicity of atrazine, over 100 fold greater than normal generations' LC50. (FIG. 3C) LC50 survival of 24 hrs old adult Nasonia virtipennis were sprayed with a sterile PBS solution (squares), S. marcescens TVIT01 (8×10^6 cells/ml, circles), or P. protegens TVIT02 (3×10^8 cells/ml, triangles) and incubated for 6 hr before being fed 100 ppm of atrazine sugar solution (A) or only sugar solution (C), and their survival was calculated 48 hrs later. Three replicates of 50 individuals are for each treated group (Two-tailed t test, *P<0.05).
# Toxicity experiments were conducted at a range of concentrations for both atrazine and Glyphosate to test the effect that the new microbiome has on increasing resistance. 50 adults (24 hr old) were put into vials from either the generationally-atrazine exposed populations or the naïve populations and exposed to atrazine or glyphosate at parts per million concentrations of 0 ppm, 10 ppm, 30 ppm, 100 ppm, 200 ppm, 400 ppm, 600 ppm, 800 ppm, 1000 ppm. Mortality was recorded after 0, 24, 48, 72, 96, 120, 168 hours (from atrazine exposure point). These were conducted in concurrent replicate experiments.
# [2] = system: Nasonia; test: Atrazine toxicity in germfree, gnotobiotic Nasonia populations; format: in vivo, Nasonia virtipennis; settings: both exposed and naïve populations, 0-30 ppb atrazine, up to 96 hr
# Description: as §1
# To test the role of the microbiome as a detoxicant to herbicides, both populations were tested in germfree, gnotobiotic, conditions. Survival was measured when exposed atrazine concentrations of 0, 5 ppb, 10 ppb, 15 ppb, 25 ppb, 30 ppb for up to 96 hr. […]
# [3] = generationally-atrazine exposed populations
SMILES,"median lethal concentration to kill half of the population (LC50) [1, 3]",median lethal concentration to kill half of the population (LC50) ([1]; naïve populations),"increase in toxicity with bacteria removed, compared to normal [2]"
"O=C(O)CNCP(=O)(O)O [Glyphosate, N-(phosphonomethyl)glycine]",315 ppm,148 ppm,
"CCNc1nc(Cl)nc(NC(C)C)n1 [atrazine, Atrazine]",562 ppm,62 ppm,> 100 fold
